In brackets after ≈: the same amount, converted by molar mass. Read-outs that look alike come from different tables or passages of the source.
What was measured:
[1] = primary salt formation assessment: storage at 40° C./75% RH for ca. 24 h, XRPD; type: physicochemical; conditions: solids stored at 40° C./75% RH for ca. 24 h
Description: Solids were dried at 40° C. under vacuum for ca. 24 h, and then re-analysed by XRPD.
Solids were then stored at 40° C./75% RH for ca. 24 h, and then re-analysed by XRPD.

[2] = type: physicochemical
Description: Approximately 20 mg of each salt was weighed into 3×2 mL push cap vials. 0.1 mL of buffer (Chloride pH 1.2; Acetate pH 4.5; Phosphate pH 6.8) was added to each vial, at 25° C. The experiment was stirred for ca. 24 h. After 2 h, the pH was measured and adjusted if required. After 24 h a final pH measurement was taken. Any slurries were centrifuged and the solids analysed by XRPD.

[3] = primary salt formation assessment: solution degradation (HPLC of mother liquor); type: physicochemical; conditions: salt formation experiment
Description: HPLC analysis was carried out to determine the chemical purity of the mesembrine and to provide information on any impurities. The following conditions were use: • Column: Waters Acquity BEH 018 1.7 μm 150 mm×2.1 mm • Column Temperature: 33° C. • Autosampler Temperature: 25° C. • UV Wavelength: 280 nm • Injection Volume: 5 μL • Flow Rate: 0.29 mL/min • Mobile Phase A: 0.1% NH4 in H2O • Mobile Phase B: Methanol:Water 20:80% v/v • Gradient Program: […]
The experiments were then temperature cycled between the upper temperature limit (specified in Table 3.1) and 5° C. at 0.1° C./min, with 1 h holds at the upper temperature limit, and 5° C. for ca. 72 h.
After temperature cycling, solids were isolated from experiments at 5° C., and analysed by XRPD.

[4] = 1-week stability study; type: physicochemical; conditions: for Observation: Sigma Aldrich colour chart
Description: A 1-week stability study was performed for hydrochloride salt Pattern 1, besylate salt Pattern 1, fumarate salt Pattern 1+4, and fumarate salt Pattern 4.
Approximately 5 mg of the salt was weighed into 3×2 mL push cap vials. The 2 mL vials were then each placed inside a 20 mL vial, with the lids on or off as required. The solids were placed under the required stability conditions for 1 week at the following three conditions: 40° C./75% RH (open); 80° C. (closed); Ambient light, temperature and humidity (open)
After 1-week, visual observations were noted, then the solids were analysed by XRPD and HPLC.

[5] = DVS analysis (water uptake); type: physicochemical; conditions: 80% RH, 25° C.; listed as fumarate salt Pattern 4
[6] = blood:plasma and blood:brain ratios in satellite animals; type: in vivo, male C57Bl/6J mice; conditions: satellite mice, 10 mg/kg i.p., t=0.25 h
Description: Groups of 18 male C57Bl/6J mice (weighing between 20 and 30 g) received a single administration of test compound (10 mg/kg; i.p.) in methylcellulose (0.5% w/v) at a nominal concentration of […].

[7] = solubility screen of amorphous besylate salt; type: physicochemical
Description: The amorphous besylate salt prepared in Example 8 was used in a solubility screen as follows:
Known volume aliquots of solvent system were added to each vial, with heating at 40° C. between each addition for ca. 5 minutes. Addition of solvents was continued until either dissolution was observed, or until 100 volumes (ca. 1 mL) had been added.
After the solvent addition was complete, the experiments were stirred at 40° C. for ca. 16 h. […] The solids were isolated by centrifuge filtration and were analysed by XRPD.
Any solids isolated were analysed by XRPD.

[8] = male C57Bl/6J mice, 10 mg/kg i.p.
[9] = cited from earlier work
[10] = solvent miscibility/solubility of mesembrine (Example 2); type: physicochemical
Description: After dissolution 278 μL of the solution was aliquoted into pre-tared vials, and the solvent allowed to evaporate at ambient conditions for 1 h. The vials were then dried at 20° C. under vacuum for ca. 22 h. After drying, the vials were back-weighed to determine the mass of mesembrine in each vial.
The miscibility study was carried out by adding aliquots of the desired solvent system to each vial. The following aliquot sizes were used: Aliquot numbers 1-10-20 μL; 11-16-50 μL; 17-19-200 μL; 20-750 μL.
In between additions the experiment was heated to 40° C. for ca. 5 minutes to facilitate miscibility/solubility. Additions were continued until miscibility was observed, or ca. 100 volumes (2 mL) had been added.

[11] = Ambient light, temperature and humidity, 1 week

In the case of `COc1ccc(C23CCC(=O)CC2N(C)CC3)cc1OC.O=C(O)/C=C/C(=O)O` (stereo not shown) [Fumarate Pattern 1, mesembrine fumarate], the “physical stability at 40° C./75% RH (Comments)” value [1] is reported as “Physically stable”, the “HPLC Conc.” value ([2]; Target pH 1.2 (chloride buffer), 25° C., 24 h, with respect to mesembrine) is reported as 29.44 mg/mL and the Observation ([2]; Target pH 6.8, ca. 20 mg in 0.1 mL buffer) is reported as “Oiling”.
For `COc1ccc(C23CCC(=O)CC2N(C)CC3)cc1OC.O=C(O)/C=C/C(=O)O` (stereo not shown) [Fumarate Pattern 2, mesembrine fumarate], the “solution degradation (Comments)” value [3] was “degradation”.
With `COc1ccc(C23CCC(=O)CC2N(C)CC3)cc1OC.O=C(O)C=CC(=O)O` (stereo not shown) [Fumarate Pattern 4, mesembrine fumarate] the HPLC ([4]; 40° C./75% RH (open), 1 week) was 96.4 % area, the “XRPD (pattern number)” value ([4]; 40° C./75% RH (open), 1 week) was 4, and the Observation ([4]; 40° C./75% RH (open), 1 week) was “Faint beige solids (BE10)”. The HPLC ([4]; 80° C. (closed), 1 week) was 96.4 % area, the “XRPD (pattern number)” value ([4]; 80° C. (closed), 1 week) was 4, and the Observation ([4]; 80° C. (closed), 1 week) was “Faint beige solids (BE10)”. For the same compound, the HPLC [4, 11] was 96.4 % area, the “XRPD (pattern number)” value [4, 11] was 4, and the Observation [4, 11] was “Faint beige solids (BE10)”. For the same compound, the HPLC ([4]; Input) was 95.9 % area, the “XRPD (pattern number)” value ([4]; Input) was 4, and the DVS water uptake [5] was 0.5 wt %.
With `COc1ccc(C23CCC(=O)CC2N(C)CC3)cc1OC.O=P(O)(O)O` (stereo not shown) [Phosphate Pattern 1, mesembrine phosphate] the “solution degradation (Comments)” value [3] was “degradation”.
For `COc1ccc(C23CCC(=O)CC2N(C)CC3)cc1OC.O=C(O)CCC(=O)O` (stereo not shown) [Succinate Pattern 1, mesembrine succinate], the “solution degradation (Comments)” value [3] was “degradation”.
With `COc1ccc(C23CCC(=O)CC2N(C)CC3)cc1OC.O=C(O)C(O)C(O)C(=O)O` (stereo not shown) [Tartrate Pattern 1, mesembrine tartrate] the “physical stability at 40° C./75% RH (Comments)” value [1] was “Deliquescence” and the “solution degradation (Comments)” value [3] was “degradation”.
`COc1ccc(C23CCC(=O)CC2N(C)CC3)cc1OC.O=S(=O)(O)c1ccccc1` (stereo not shown) [amorphous besylate salt, mesembrine besylate] showed a Brain concentration [6] of 814 ng/g, a Plasma concentration [6] of 417 ng/mL and a Solubility ([7]; 1,4-Dioxane) of less than 10000 µg/mL. For the same compound, the Solubility ([7]; 1-Butanol) was less than 10000 µg/mL, the Solubility ([7]; 1-Propanol) was “ca.31 mg/mL” and the Solubility ([7]; 2-Ethoxyethanol) was “ca.44 mg/mL”. It also gave a Solubility ([7]; 2-Methyl THF) of less than 10000 µg/mL, a Solubility ([7]; 2-Propanol) of less than 10000 µg/mL and a Solubility ([7]; 2-Propanol:Water (50:50)) greater than 500000 µg/mL. The Solubility ([7]; 2-Propanol:Water (75:25)) was “ca.167 mg/mL”, the Solubility ([7]; Acetone) was less than 10000 µg/mL and the Solubility ([7]; Acetone:Water (90:10)) was greater than 500000 µg/mL. The Solubility ([7]; Acetonitrile) was greater than 500000 µg/mL, the Solubility ([7]; Anisole) was less than 10000 µg/mL and the Solubility ([7]; Butyl Acetate) was less than 10000 µg/mL. The Solubility ([7]; Dichloromethane (DCM)) was “ca.250 mg/mL”, the Solubility ([7]; Diisopropyl ether) was less than 10000 µg/mL and the Solubility ([7]; Dimethylsulfoxide (DMSO)) was greater than 500000 µg/mL. For the same compound, the Solubility ([7]; Ethanol) was “ca.44 mg/mL”, the Solubility ([7]; Ethanol:Water (50:50)) was greater than 500000 µg/mL and the Solubility ([7]; Ethanol:Water (90:10)) was greater than 500000 µg/mL. The Solubility ([7]; Ethyl acetate) was less than 10000 µg/mL, the Solubility ([7]; Heptane) was less than 10000 µg/mL and the Solubility ([7]; Isopropyl acetate) was less than 10000 µg/mL. For the same compound, the Solubility ([7]; Methanol) was greater than 500000 µg/mL, the Solubility ([7]; Methylethyl Ketone (MEK)) was less than 10000 µg/mL and the Solubility ([7]; Methylisobutyl Ketone (MiBK)) was less than 10000 µg/mL. For the same compound, the Solubility ([7]; N,N-Dimethylacetamide (DMA)) was greater than 500000 µg/mL, the Solubility ([7]; N,N-Dimethylformamide (DMF)) was “ca.250 mg/mL” and the Solubility ([7]; N-Methylpyrrolidone (NMP)) was greater than 500000 µg/mL. For the same compound, the Solubility ([7]; Tetrahydrofuran (THF)) was less than 10000 µg/mL, the Solubility ([7]; Toluene) was less than 10000 µg/mL and the Solubility ([7]; Water) was greater than 500000 µg/mL. The Solubility ([7]; tert-Butylmethyl Ether (tBME)) was less than 10000 µg/mL, the “AUC greater than that produced by the mesembrine free base” value [8] was “over 100 ng·hr/mL” and the “difference in half-life versus the free base” value [8] was roughly 10 min. For the same compound, the AUC0-inf ([8]; plasma) was 392 ng·h/mL, the Cmax ([8]; plasma) was 451 ng/mL and the Tmax ([8]; plasma) was 15 min. The half-life ([8]; plasma) was 36.9 min.
In the case of `COc1ccc(C23CCC(=O)CC2N(C)CC3)cc1OC` (stereo not shown) [mesembrine, 3a-(3,4-dimethoxyphenyl)-octahydro-1-methy-6H-indol-6-one], the Brain concentration [6] is given as 1292 ng/g, the Plasma concentration [6] is given as 317 ng/mL and the Solubility ([9]; Ethanol) is given as 10000 µg/mL (≈ 34.6 mM). For the same compound, the Solubility ([9]; Water) was “low solubility”, the Solubility ([9]; chloroform) was 10000 µg/mL (≈ 34.6 mM) and the AUC0-inf ([8]; plasma) was 290 ng·h/mL. It also gave a Cmax ([8]; plasma) of 400 ng/mL, a Tmax ([8]; plasma) of 15 min and a half-life ([8]; plasma) of 27.2 min. It also gave a t1/2 ([8]; plasma) of 27.2 min, a Miscibility ([10]; 1,4-Dioxane) greater than 850 mg/mL and a Miscibility ([10]; 2-Methyl THF) greater than 845 mg/mL. It also gave a Miscibility ([10]; 2-Propanol (IPA)) greater than 870 mg/mL, a Miscibility ([10]; 2-Propanol:Water (50:50)) greater than 870 mg/mL and a Miscibility ([10]; Acetone) greater than 890 mg/mL. It also gave a Miscibility ([10]; Acetonitrile) greater than 855 mg/mL, a Miscibility ([10]; DMSO) greater than 288 mg/mL and a Miscibility ([10]; Ethanol) greater than 630 mg/mL. For the same compound, the Miscibility ([10]; Ethyl acetate) was greater than 445 mg/mL, the Miscibility ([10]; Heptane) was less than 9 mg/mL and the Miscibility ([10]; Isopropyl acetate) was greater than 900 mg/mL. For the same compound, the Miscibility ([10]; Methanol) was greater than 455 mg/mL, the Miscibility ([10]; Methylethyl Ketone (MEK)) was greater than 915 mg/mL and the Miscibility ([10]; N-Methyl-2-pyrrolidone (NMP)) was greater than 450 mg/mL. The Miscibility ([10]; Tert-butyl methyl ether) was greater than 465 mg/mL, the Miscibility ([10]; Tetrahydrofuran (THF)) was greater than 381 mg/mL and the Miscibility ([10]; Toluene) was greater than 455 mg/mL. For the same compound, the Miscibility ([10]; Water) was less than 9 mg/mL.

From patent US12595231B2 (priority 2022, dated 2026)
